Reference: the NIST ThermoML archive (doi:10.1021/je060271a)

Settings: 343.15 K, Liquid, Vibrating tube method

CCCCCCCC(=O)OCC(COC(=O)CCCCCCC)(COC(=O)CCCCCCC)COC(=O)CCCCCCC [pentaerythritol tetraoctanoate]
Settings | mass density [kg/m3]
665.9 kPa | 926.5
687.8 kPa | 926.6
706.6 kPa | 926.4
730 kPa | 926.5
755.6 kPa | 926.6
778.5 kPa | 926.5
802.8 kPa | 926.6
832.2 kPa | 926.4
862.6 kPa | 926.6
881.1 kPa | 926.6
902.3 kPa | 926.7
920.9 kPa | 926.6
940.4 kPa | 926.6
964.7 kPa | 926.7
985.7 kPa | 926.6
1011.4 kPa | 926.8
1034.9 kPa | 926.7
1063.7 kPa | 926.8
1088.9 kPa | 926.8
1119.9 kPa | 926.8
1147.2 kPa | 926.8
1182.1 kPa | 926.7
1218.2 kPa | 926.8
1249.3 kPa | 926.9
1282.5 kPa | 926.8
1323.6 kPa | 927.1
1359.7 kPa | 927
1406.5 kPa | 926.9
1447.6 kPa | 927
1490.5 kPa | 927
1543.8 kPa | 927.1
1590.8 kPa | 927.1
1650.5 kPa | 927.1
1702.4 kPa | 927.2
1763.5 kPa | 927.2
1794.1 kPa | 927.3
1881.2 kPa | 927.4
1905.6 kPa | 927.4
1913.3 kPa | 927.3
1919.7 kPa | 927.4
1926.3 kPa | 927.3
1934.1 kPa | 927.4
1941 kPa | 927.5
1952.7 kPa | 927.5
1970.2 kPa | 927.3
2032.8 kPa | 927.4
2121.2 kPa | 927.7
2203.7 kPa | 927.5
2331.4 kPa | 927.7
2366.8 kPa | 927.7
2379.6 kPa | 927.9
2393.5 kPa | 927.8
2403.9 kPa | 927.9
2415.5 kPa | 927.8
2424.6 kPa | 927.8
2434.6 kPa | 927.8
2446.8 kPa | 927.8
2457.7 kPa | 927.7
2468.6 kPa | 927.9
2480.2 kPa | 927.8
2493.9 kPa | 927.9
2505.4 kPa | 927.9
2519.4 kPa | 927.9
2531.1 kPa | 927.9
2543 kPa | 927.9
2555.2 kPa | 927.8
2569.2 kPa | 927.9
2581.3 kPa | 928
2593.5 kPa | 927.9
2608.2 kPa | 928
2620.9 kPa | 927.9
2633.4 kPa | 928.1
2646.4 kPa | 927.9
2659 kPa | 928
2674.6 kPa | 928
2687.8 kPa | 928
2700.8 kPa | 928
2713.8 kPa | 927.9
2729.6 kPa | 928.1
2743.3 kPa | 928
2756.7 kPa | 927.9
2773 kPa | 927.9
2786.3 kPa | 928.1
2800.4 kPa | 928
2814.8 kPa | 928.1
2830 kPa | 928.1
2846.9 kPa | 928.2
2861.3 kPa | 928.1
2875.3 kPa | 928.1
2892.3 kPa | 928.1
2907 kPa | 928.1
2921.6 kPa | 928.2
2936.8 kPa | 928.1
2955 kPa | 928.2
2969.8 kPa | 928.1
2988.2 kPa | 928.2
3003.6 kPa | 928.1
3019.4 kPa | 928.3
3035.5 kPa | 928.4
3053.7 kPa | 928.2
3070.2 kPa | 928.3
3085.9 kPa | 928.2
3102.6 kPa | 928.4
3121.8 kPa | 928.3
3138.3 kPa | 928.4
3154.9 kPa | 928.4
3175.2 kPa | 928.3
3191.8 kPa | 928.3
3209 kPa | 928.3
3229.6 kPa | 928.4
3247 kPa | 928.4
3264.6 kPa | 928.4
3285.8 kPa | 928.4
3303.6 kPa | 928.5
3321.5 kPa | 928.5
3343 kPa | 928.5
3361.5 kPa | 928.6
3379.9 kPa | 928.5
3398.8 kPa | 928.5
3421.3 kPa | 928.5
3440 kPa | 928.4
3463.2 kPa | 928.4
3482.8 kPa | 928.5
3502.4 kPa | 928.4
3522.3 kPa | 928.7
3542.4 kPa | 928.6
3566.7 kPa | 928.7
3583.3 kPa | 928.6
3608.1 kPa | 928.7
3632.7 kPa | 928.7
3653.7 kPa | 928.6
3674.8 kPa | 928.8
3695.9 kPa | 928.7
3721.9 kPa | 928.7
3743.4 kPa | 928.8
3765.8 kPa | 928.7
3792.8 kPa | 928.8
3815.3 kPa | 928.8
3838 kPa | 928.8
3861 kPa | 928.9
3888.6 kPa | 929
3911.4 kPa | 929
3935 kPa | 928.8
3959.2 kPa | 928.9
3987.5 kPa | 929
4012.2 kPa | 929
4037.5 kPa | 928.9
4064.5 kPa | 929
